Entries after “also recorded” stand apart in the source; their conditions may differ.
Key:
[1] = test system: CD4+ effector memory T cells; test: Suppression of Tetanus Toxoid stimulated CD4+ effector T cells in PBMC; format: cell-based, human
Method: Previously harvested and frozen PBMC were thawed and suspended in conditioned chRPMI (3.3×10^6 cells/mL) by conventional means. Cells were stained with CFSE (Cat #: 65-0850-84, Affymetrix, Santa Clara, Calif.) and plated at 300,000 cells per well. Plates were incubated overnight (37° C. in 5% CO2). […] Previous titration experiments performed at EpiVax (EpiVax, Providence, R.I.) have established that stimulation with 0.5 μg/ml Tetanus Toxoid (TT) (Astarte Biologics, Bothell, Wash.) elicits a measurable CD4+ effector memory T cells response in PBMC drawn from healthy control donors (Rhode Island Blood Center, Providence, R.I.). Tetanus Toxoid stock (100 μg/mL) (Astarte Biologics, Bothell, Wash.) was diluted in conditioned chRPMI yielding a working concentration of 1 ug/mL. […] All plates were then incubated for six additional days. On assay day five, 100 μL of supernatant was removed from each well and replaced with freshly conditioned chRPMI.
On assay day seven, cells were removed from incubation. Cells were labeled for live/dead discrimination, for surface markers CD127, CCR7, CD4, CD45RA, and CD25 and for intracellular FoxP3. Stained cells were further prepared for FACS analysis by conventional means. Cells were first gated to eliminate aggregates and dead cells. Live cells were gated for CD4 T cells and all subsequent analysis was done on this population. The activated Teffector population was identified as the CD4+/CD25-high/FoxP3-intermediate (CD4+/CD25^1/FoxP3int) (FIG. 8A).
Proliferation of CD4+/CD25-high (CD4^+/CD25^hi) T cells was estimated from the dilution of the CFSE stain (Cat #: 65-0850-84, Affymetrix, Santa Clara, Calif.) and % proliferation determined by the CFSE-low (CFSEL^lo) population (FIG. 8B).

[2] = test system: CD4+CD25+FoxP3+ regulatory T cells; format: cell-based, human
[3] = test system: CD4+ T cells in PBMCs from healthy donors; test: Tetanus Toxoid Bystander Suppression Assay (TTBSA); format: cell-based, human
[4] = test system: HLA-DRB1*0101, *0301, *0401, *0701, *1101, *1301 and *1501 alleles; test: In vitro HLA DRB1 binding assay, panel of seven alleles; design: species or system human
Method: The six FV peptides were tested for in vitro binding to HLA-DRB1*0101, *0301, *0401, *0701, *1101, *1301 and *1501 alleles.

[5] = test system: human DR molecules; settings: cited from earlier work
[6] = test system: PBMCs from lupus patients; settings: cited from earlier work
[7] = target: HLA DRB1*0701 (Homo sapiens, UniProt P01903+P01911, A100R/A102G/A103Q/D57E/D86V/E43K/F76Y/K127E/L162R/M171V/P40G/Q125H/Q99D/R33Q/R42Y/R54Q/S133A/S66F/T210M/V115G/Y107V/Y59L/Y89S); test: HLA DRB1 (IC50) | *0701
[8] = target: HLA DRB1*0401 (Homo sapiens, UniProt P01903+P01911, A100K/A169T/F76Y/I96L/K127E/L162R/M171V/N62H/P40V/Q125Y/R42H/S133A/S149N/S66Y/V115G/V209L/W38E); test: HLA DRB1 (IC50) | *0401
[9] = target: HLA DRB1*1101 (Homo sapiens, UniProt P01903+P01911, A100R/A169T/A87E/I96F/K41T/L162R/M171V/P40S/Q125H/Q178H/Q39Y/Q99D/R42S/S66Y/T262R/V115G/W38E); test: HLA DRB1 (IC50) | *1101
HLA DRB1*1101, sequence (P01903 26-254 limits assumed, other chains not shown): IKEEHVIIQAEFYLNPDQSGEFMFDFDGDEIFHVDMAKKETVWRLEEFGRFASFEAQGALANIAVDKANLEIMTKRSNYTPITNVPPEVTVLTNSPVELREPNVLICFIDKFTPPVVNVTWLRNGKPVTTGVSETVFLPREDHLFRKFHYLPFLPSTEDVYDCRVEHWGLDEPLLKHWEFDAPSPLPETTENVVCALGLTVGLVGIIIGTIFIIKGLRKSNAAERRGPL

## CC[C@H](C)[C@H](NC(=O)[C@H](CO)NC(=O)[C@H](Cc1ccc(O)cc1)NC(=O)[C@@H]1CCCN1C(=O)[C@H](CCCNC(=N)N)NC(=O)[C@H](CO)NC(=O)[C@H](C)NC(=O)[C@H](CCSC)NC(=O)[C@H](CC(N)=O)NC(=O)[C@H](CCCCN)NC(=O)[C@H](Cc1ccccc1)NC(=O)[C@@H](NC(=O)[C@@H](NC(=O)[C@H](CCCCN)NC(C)=O)[C@@H](C)CC)C(C)C)C(=O)N[C@@H](Cc1ccc(O)cc1)C(N)=O [SEQ ID NO: 3]
[1]
  activated (CD25 high) proliferating (CFSE low) CD4 T cells stimulated by Tetanus Toxoid: no significant inhibitory effect
  activated effector CD4+ T cells (CD4+/CD25-high/FoxP3-intermediate) reacting to Tetanus Toxoid: no appreciable effect
[1]; FIG. 11
  proliferation of CD4− cells: little inhibitory effect
[1]; donor 114, dose-dependent
  proliferation of total CD4+ T cells (CFSE low): little to no effect
[2]
  relative proportion of highly proliferative regulatory T cells (CFSE low FoxP3+) among CD25+ Granzyme B+ CD4+ T cells: no significant effect
[3]
  inhibition of the CD4+ T memory response / T effector proliferation in the TTBSA: did not inhibit
[4]; across the alleles tested
  binding affinity to HLA DR alleles (in words): strong affinity
[4]; seven alleles, listed as FV432
  breadth of binding to HLA DRB1 alleles: binding to nearly all of the HLA DRB1 alleles tested; also recorded: bind to multiple HLA DRB1 alleles

## RIHMVYSKRSGKPRGYAFIEY (listed as Homo sapiens) [peptide 131-151, residues 131-151 of the spliceosome protein]
[5]
  binding to human DR molecules: binds to a large panel of human DR molecules
[6]
  randomly selected lupus patients whose PBMCs contain T cells that proliferate in response to the peptide: 40%

## CC[C@H](C)[C@H](NC(=O)[C@@H](NC(=O)[C@H](CC(C)C)NC(=O)[C@@H](NC(=O)[C@H](Cc1ccccc1)NC(=O)[C@H](CC(=O)O)NC(=O)[C@@H](NC(=O)CN)[C@@H](C)O)[C@@H](C)O)[C@@H](C)O)C(=O)N[C@@H](CO)C(=O)N[C@@H](CO)C(=O)N[C@@H](CC(C)C)C(=O)N[C@@H](CCC(N)=O)C(=O)N1CCC[C@H]1C(=O)N[C@@H](CCC(=O)O)C(=O)N[C@@H](CC(=O)O)C(=O)O [SEQ ID NO: 117 | Tregitope 084, GTDFTLTISSLQPED]
[7]
  IC50: < 1 µM
[8]
  IC50: < 1 µM
[9]
  IC50: 100 µM

Reference: patent US20230279072A1, “REGULATORY T CELL EPITOPES” (EpiVax Inc., priority 2020, published 2023)
